BindingDB's records for doi:10.1021/np500198g (University of Tuebingen, 2014)
pIC50: −log10 of the molar value.

Molecular target: T1, Prostaglandin G/H synthase 2 (Homo sapiens, UniProt P35354)
T1 sequence (P35354 whole entry): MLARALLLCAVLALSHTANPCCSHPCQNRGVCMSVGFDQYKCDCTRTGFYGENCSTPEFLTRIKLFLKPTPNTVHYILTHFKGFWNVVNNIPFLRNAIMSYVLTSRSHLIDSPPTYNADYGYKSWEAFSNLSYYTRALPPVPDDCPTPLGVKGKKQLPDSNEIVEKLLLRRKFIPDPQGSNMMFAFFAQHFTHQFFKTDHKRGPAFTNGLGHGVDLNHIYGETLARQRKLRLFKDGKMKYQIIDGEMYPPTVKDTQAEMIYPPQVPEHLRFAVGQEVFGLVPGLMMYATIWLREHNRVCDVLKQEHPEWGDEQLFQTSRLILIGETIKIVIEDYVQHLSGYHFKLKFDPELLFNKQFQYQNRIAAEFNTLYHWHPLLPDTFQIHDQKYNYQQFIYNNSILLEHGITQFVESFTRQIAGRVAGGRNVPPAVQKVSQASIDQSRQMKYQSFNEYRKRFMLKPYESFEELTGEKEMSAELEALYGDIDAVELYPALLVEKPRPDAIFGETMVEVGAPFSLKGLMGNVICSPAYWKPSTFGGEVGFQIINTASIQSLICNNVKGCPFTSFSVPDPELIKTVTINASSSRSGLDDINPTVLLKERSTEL
Assay: Inhibition of human recombinant COX-2 using arachidonic acid as substrate preincubated for 5 mins followed by substrate addition measured after 5 mins by HPLC analysis

CC(C)=CCC[C@H](C(=O)O)[C@@H]1CC[C@]2(C)C3=C(CC[C@@]12C)[C@@]1(C)CC[C@@H](O)C(C)(C)[C@@H]1CC3
pIC50: < 5.00
